From patent publication US9156829B2, “Cycloalkyl and heterocycloalkyl compounds as orexin receptor antagonists” (Takeda Pharmaceutical Company Limited, priority 2014, dated 2015)

Assays:
human orexin receptor 1 = human orexin receptor 1 (Homo sapiens (Human), UniProt O43613); assay: Orexin antagonist activity, intracellular calcium FLIPR assay, RBL-2H3 cells expressing human orexin receptor 1; type: cell-based; conditions: RBL-2H3 cells stably expressing human orexin receptor 1; orexin-A at approx. 80% maximal response; compound added 15 minutes before; read-out: Human Orexin1R IC50
human orexin receptor 2 = human orexin receptor 2 (Homo sapiens (Human), UniProt O43614); assay: Orexin antagonist activity, intracellular calcium FLIPR assay, RBL-2H3 cells expressing human orexin receptor 2; type: cell-based; conditions: RBL-2H3 cells stably expressing human orexin receptor 2; orexin-A at approx. 80% maximal response; compound added 15 minutes before; read-out: Human Orexin2R IC50
human orexin receptor 2, sequence (O43614 whole entry): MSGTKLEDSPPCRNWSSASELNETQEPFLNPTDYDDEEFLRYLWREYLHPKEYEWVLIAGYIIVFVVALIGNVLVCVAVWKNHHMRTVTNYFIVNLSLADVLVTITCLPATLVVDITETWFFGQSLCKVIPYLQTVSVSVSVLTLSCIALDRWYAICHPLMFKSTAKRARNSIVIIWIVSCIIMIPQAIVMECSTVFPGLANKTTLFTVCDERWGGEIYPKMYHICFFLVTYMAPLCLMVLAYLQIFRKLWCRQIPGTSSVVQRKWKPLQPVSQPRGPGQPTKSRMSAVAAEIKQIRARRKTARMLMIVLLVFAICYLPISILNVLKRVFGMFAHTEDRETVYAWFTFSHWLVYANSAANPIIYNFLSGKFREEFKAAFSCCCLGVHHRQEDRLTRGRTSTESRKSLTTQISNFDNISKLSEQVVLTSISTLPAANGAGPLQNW

human orexin receptor 1, sequence (O43613 whole entry): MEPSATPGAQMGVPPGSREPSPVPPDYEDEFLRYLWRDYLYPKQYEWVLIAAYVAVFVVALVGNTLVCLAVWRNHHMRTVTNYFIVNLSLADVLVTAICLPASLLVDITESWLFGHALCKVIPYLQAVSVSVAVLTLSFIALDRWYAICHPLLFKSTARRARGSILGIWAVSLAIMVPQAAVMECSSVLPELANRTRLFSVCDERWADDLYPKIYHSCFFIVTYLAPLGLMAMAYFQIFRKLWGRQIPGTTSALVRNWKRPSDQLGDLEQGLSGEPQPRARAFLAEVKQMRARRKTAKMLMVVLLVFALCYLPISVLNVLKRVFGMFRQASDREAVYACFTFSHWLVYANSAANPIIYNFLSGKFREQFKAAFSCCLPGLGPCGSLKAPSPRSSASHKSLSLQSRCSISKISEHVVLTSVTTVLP

| IC50 (human orexin receptor 1) | IC50 (human orexin receptor 2) | Structure (SMILES) |
| --- | --- | --- |
| 21 nM | > 10000 nM | Cc1cc(C(F)(F)F)cnc1N[C@H]1CCC[C@@H]1NC(=O)c1ncccc1-n1nccn1 [Example 124, N-[(1S,2S)-2-{[3-Methyl-5-(trifluoromethyl)pyridin-2-yl]amino}cyclopentyl]-3-(2H-1,2,3-triazol-2-yl)pyridine-2-carboxamide] |
| 14 nM | > 10000 nM | CCc1nc(C(F)(F)F)cnc1N[C@H]1CCC[C@@H]1NC(=O)c1ncccc1-n1nccn1 [Example 125, N-[(1S,2S)-2-{[3-Ethyl-5-(trifluoromethyl)pyrazin-2-yl]amino}cyclopentyl]-3-(2H-1,2,3-triazol-2-yl)pyridine-2-carboxamide] |
| 119 nM | > 10000 nM | O=C(NC1CC(F)(F)CC1Nc1cnc(C(F)(F)F)cn1)c1ccccc1-n1nccn1 (stereo not drawn) [Example 126, N-(4,4-Difluoro-2-{[5-(trifluoromethyl)pyrazin-2-yl]amino}cyclopentyl)-2-(2H-1,2,3-triazol-2-yl)benzamide] |
| 39 nM | > 10000 nM | O=C(N[C@H]1CC(F)(F)C[C@@H]1Nc1ccc(OC(F)(F)F)cn1)c1ccccc1-n1nccn1 [Example 131, N-[(1S,2S)-4,4-Difluoro-2-{[5-(trifluoromethoxy)pyridin-2-yl]amino}cyclopentyl]-2-(2H-1,2,3-triazol-2-yl)benzamide] |
| 12 nM | > 10000 nM | O=C(N[C@H]1CC(F)(F)C[C@@H]1Nc1ncc(C(F)(F)F)cc1F)c1ccccc1-n1nccn1 [Example 132, N-[(1S,2S)-4,4-Difluoro-2-{[3-fluoro-5-(trifluoromethyl)pyridin-2-yl]amino}cyclopentyl]-2-(2H-1,2,3-triazol-2-yl)benzamide] |
| 94 nM | > 10000 nM | CCOc1cnc(-c2ccccc2C(=O)N[C@H]2CCC[C@@H]2Nc2cnc(C(F)(F)F)cn2)nc1 [Example 135, 2-(5-Ethoxypyrimidin-2-yl)-N-[(1S,2S)-2-{[5-(trifluoromethyl)pyrazin-2-yl]amino}cyclopentyl]benzamide] |
| 830 nM | > 10000 nM | COc1cccc(F)c1C(=O)N[C@H]1CCC[C@@H]1Nc1cnc(C(F)(F)F)cn1 [Example 136, 2-Fluoro-6-methoxy-N-[(1S,2S)-2-{[5-(trifluoromethyl)pyrazin-2-yl]amino}cyclopentyl]benzamide] |
| 34 nM | > 10000 nM | Cc1cc(C(F)(F)F)cnc1N[C@H]1CCC[C@@H]1NC(=O)c1ncccc1-c1ncccn1 [Example 137, N-[(1S,2S)-2-{[3-Methyl-5-(trifluoromethyl)pyridin-2-yl]amino}cyclopentyl]-3-(pyrimidin-2-yl)pyridine-2-carboxamide] |
| 30 nM | > 10000 nM | O=C(N[C@H]1CCC[C@@H]1Nc1ncc(C(F)(F)F)cc1F)c1ccccc1-c1ncccn1 [Example 138, N-[(1S,2S)-2-{[3-Fluoro-5-(trifluoromethyl)pyridin-2-yl]amino}cyclopentyl]-2-(pyrimidin-2-yl)benzamide] |
| 32 nM | > 10000 nM | O=C(N[C@H]1CCC[C@@H]1Nc1ncc(C(F)(F)F)cc1F)c1cc(F)ccc1-c1ncccn1 [Example 139, 5-Fluoro-N-[(1S,2S)-2-{[3-fluoro-5-(trifluoromethyl)pyridin-2-yl]amino}cyclopentyl]-2-(pyrimidin-2-yl)benzamide] |
| 35 nM | > 10000 nM | Cc1noc(-c2ccccc2C(=O)N[C@H]2CCC[C@@H]2Nc2ncc(C(F)(F)F)cc2F)n1 [Example 140, N-[(1S,2S)-2-{[3-Fluoro-5-(trifluoromethyl)pyridin-2-yl]amino}cyclopentyl]-2-(3-methyl-1,2,4-oxadiazol-5-yl)benzamide] |
| 62 nM | > 10000 nM | Cc1noc(-c2ccccc2C(=O)N[C@H]2CCC[C@@H]2Nc2ncc(C(F)(F)F)nc2C)n1 [Example 141, 2-(3-Methyl-1,2,4-oxadiazol-5-yl)-N-[(1S,2S)-2-{[3-methyl-5-(trifluoromethyl)pyrazin-2-yl]amino}cyclopentyl]benzamide] |
| 12 nM | 8830 nM | O=C(N[C@H]1CCC[C@@H]1Nc1ncc(C(F)(F)F)nc1C1CC1)c1ncccc1-n1nccn1 [Example 142, N-[(1S,2S)-2-{[3-Cyclopropyl-5-(trifluoromethyl)pyrazin-2-yl]amino}cyclopentyl]-3-(2H-1,2,3-triazol-2-yl)pyridine-2-carboxamide] |
| 49 nM | > 10000 nM | O=C(N[C@H]1CCC[C@@H]1Nc1ncc(C(F)(F)F)nc1C1CC1)c1ncccc1-c1ncccn1 [Example 143, N-[(1S,2S)-2-{[3-Cyclopropyl-5-(trifluoromethyl)pyrazin-2-yl]amino}cyclopentyl]-3-(pyrimidin-2-yl)pyridine-2-carboxamide] |
| 13 nM | > 10000 nM | C[C@]1(Nc2cnc(C(F)(F)F)cn2)CCC[C@@H]1NC(=O)c1ncccc1-c1ncccn1 [Example 144, N-[(1S,2S)-2-Methyl-2-{[5-(trifluoromethyl)pyrazin-2-yl]amino}cyclopentyl]-3-(pyrimidin-2-yl)pyridine-2-carboxamide] |
| 11 nM | > 10000 nM | Cc1noc(-c2ccccc2C(=O)N[C@H]2CCC[C@]2(C)Nc2cnc(C(F)(F)F)cn2)n1 [Example 145, 2-(3-Methyl-1,2,4-oxadiazol-5-yl)-N-[(1S,2S)-2-methyl-2-{[5-(trifluoromethyl)pyrazin-2-yl]amino}cyclopentyl]benzamide] |
| 7 nM | > 10000 nM | CC1(Nc2ncc(C(F)(F)F)cc2F)CCCC1NC(=O)c1ncccc1-c1ncccn1 (stereo not drawn) [Example 146, N-(2-{[3-Fluoro-5-(trifluoromethyl)pyridin-2-yl]amino}-2-methylcyclopentyl)-3-(pyrimidin-2-yl)pyridine-2-carboxamide] |
| 24 nM | > 10000 nM | O=C(N[C@H]1CCC[C@@H]1Nc1ncc(C(F)(F)F)cc1F)c1ncccc1-c1ncccn1 [Example 147, N-[(1S,2S)-2-{[3-Fluoro-5-(trifluoromethyl)pyridin-2-yl]amino}cyclopentyl]-3-(pyrimidin-2-yl)pyridine-2-carboxamide] |
| 19 nM | > 10000 nM | O=C(N[C@H]1CCC[C@@H]1Nc1ncc(C(F)(F)F)cc1Cl)c1ncccc1-c1ncccn1 [Example 148, N-[(1S,2S)-2-{[3-Chloro-5-(trifluoromethyl)pyridin-2-yl]amino}cyclopentyl]-3-(pyrimidin-2-yl)pyridine-2-carboxamide] |
| 25 nM | > 10000 nM | CCc1nc(C(F)(F)F)cnc1N[C@H]1CCC[C@@H]1NC(=O)c1ccccc1-c1nc(C)no1 [Example 149, N-[(1S,2S)-2-{[3-Ethyl-5-(trifluoromethyl)pyrazin-2-yl]amino}cyclopentyl]-2-(3-methyl-1,2,4-oxadiazol-5-yl)benzamide] |
| 43 nM | > 10000 nM | CCc1nc(C(F)(F)F)cnc1N[C@H]1CCC[C@@H]1NC(=O)c1ncccc1-c1ncccn1 [Example 150, N-[(1S,2S)-2-{[3-Ethyl-5-(trifluoromethyl)pyrazin-2-yl]amino}cyclopentyl]-3-(pyrimidin-2-yl)pyridine-2-carboxamide] |
| 29 nM | > 10000 nM | CCc1nc(C(F)(F)F)cnc1N[C@H]1CCC[C@@H]1NC(=O)c1ccccc1-c1ncccn1 [Example 151, N-[(1S,2S)-2-{[3-Ethyl-5-(trifluoromethyl)pyrazin-2-yl]amino}cyclopentyl]-2-(pyrimidin-2-yl)benzamide] |
| 66 nM | > 10000 nM | CC1(Nc2ncc(C(F)(F)F)cn2)CCCC1NC(=O)c1ncccc1-c1ncccn1 (stereo not drawn) [Example 153, N-(2-Methyl-2-{[5-(trifluoromethyl)pyrimidin-2-yl]amino}cyclopentyl)-3-(pyrimidin-2-yl)pyridine-2-carboxamide] |
| 8 nM | > 10000 nM | CC1(Nc2ccc(C(F)(F)F)cn2)CCCC1NC(=O)c1ncccc1-n1nccn1 (stereo not drawn) [Example 155, N-(2-Methyl-2-{[5-(trifluoromethyl)pyridin-2-yl]amino}cyclopentyl)-3-(2H-1,2,3-triazol-2-yl)pyridine-2-carboxamide] |
| 11 nM | > 10000 nM | CC1(Nc2ccc(C(F)(F)F)cn2)CCCC1NC(=O)c1ncccc1-c1ncccn1 (stereo not drawn) [Example 156, N-(2-Methyl-2-{[5-(trifluoromethyl)pyridin-2-yl]amino}cyclopentyl)-3-(pyrimidin-2-yl)pyridine-2-carboxamide] |
| 236 nM | > 10000 nM | O=C(N[C@H]1CC(F)(F)C[C@@H]1Nc1ccc(OC(F)F)cn1)c1ccccc1-n1nccn1 [Example 157, N-[(1S,2S)-2-{[5-(Difluoromethoxy)pyridin-2-yl]amino}-4,4-difluorocyclopentyl]-2-(2H-1,2,3-triazol-2-yl)benzamide] |
| 5 nM | > 10000 nM | CCc1nc(C(F)(F)F)cnc1N[C@H]1CCC[C@@H]1NC(=O)c1cc(F)ccc1-c1ncccn1 [Example 158, N-[(1S,2S)-2-{[3-Ethyl-5-(trifluoromethyl)pyrazin-2-yl]amino}cyclopentyl]-5-fluoro-2-(pyrimidin-2-yl)benzamide] |
| 25 nM | > 10000 nM | Cc1nc(C(F)(F)F)cnc1N[C@H]1CCC[C@@H]1NC(=O)c1ncccc1-c1ncccn1 [Example 159, N-[(1S,2S)-2-{[3-Methyl-5-(trifluoromethyl)pyrazin-2-yl]amino}cyclopentyl]-3-(pyrimidin-2-yl)pyridine-2-carboxamide] |
| 29 nM | > 10000 nM | Cc1nnc(-c2ccccc2C(=O)N[C@H]2CCC[C@]2(C)Nc2cnc(C(F)(F)F)cn2)o1 [Example 160, 2-(5-Methyl-1,3,4-oxadiazol-2-yl)-N-[(1S,2S)-2-methyl-2-{[5-(trifluoromethyl)pyrazin-2-yl]amino}cyclopentyl]benzamide] |

| Structure (SMILES) | IC50 (human orexin receptor 1) | IC50 (human orexin receptor 2) |
| --- | --- | --- |
| CC1(Nc2ncc(C(F)(F)F)cn2)CCCC1NC(=O)c1ncccc1-n1nccn1 (stereo not drawn) [Example 154, N-(2-Methyl-2-{[5-(trifluoromethyl)pyrimidin-2-yl]amino}cyclopentyl)-3-(2H-1,2,3-triazol-2-yl)pyridine-2-carboxamide] | 42 nM | > 10000 nM |
